Source: patent publication US11135214B2, “Methods for enhancing the bio availability and exposure of a voltage-gated potassium channel opener” (priority 2018, dated 2021)
Values joined by “and” are separate entries in the source; they are usually repeats but may differ in a detail not shown here. Equal values may be shown once. “Also recorded” adds a separate entry of the source.

Assays:
Format in all cases: in vivo, human
[1] = system: GABA-A receptor mediated intracortical inhibition; assay: TMS crossover study, short-interval intracortical inhibition (SICI); conditions: for Short Intracortical Inhibition (Mean Conditioned MEP/Mean Unconditioned MEP): individual subjects; for Short Intracortical Inhibition (Mean Conditioned MEP/Mean Unconditioned MEP) / Short Intracortical Inhibition (Mean Conditioned MEP/Mean Unconditioned MEP), Mean: ISI 2 ms; for Short Intracortical Inhibition (Mean Conditioned MEP/Mean Unconditioned MEP), Mean: mean of subjects
Experimental: Short-interval intracortical inhibition (SICI) was measured using 15 conditioning-test stimuli pairs given in a random order at an interstimulus interval (ISI) of 2 ms. The conditioning stimulus was set at 80% of AMT and the suprathreshold stimulus 120% RMT. The calculation of SICI utilized custom scripts to measure the amplitudes of conditioned and unconditioned motor evoked potentials (MEPs) and to express SICI as the ratio of mean conditioned MEPs over mean unconditioned MEPs.

[2] = system: corticospinal excitability; assay: TMS crossover study, TMS-EMG active motor threshold (AMT); conditions: for Active Motor Threshold, post-dose change from baseline: individual subjects; for Active Motor Threshold, post-dose change from baseline / Active Motor Threshold, post-dose change from baseline (Mean): single 20 mg dose; for Active Motor Threshold, post-dose change from baseline (Mean): mean of subjects
Experimental: RMT and AMT values are reported as percentages of maximum stimulator output (% MSO). Drug-induced modulation of TMS-EMG parameters were evaluated over the 3 timepoints (2, 4, and 6 h) and for the timepoint with the highest drug exposure. AMT was recorded while subjects squeezed a manometer at 20% of each individual's maximum contraction force. […] AMT could not be registered for Subjects 912 and 940 at 2 hours after Compound A and placebo intake, respectively.

[3] = system: spontaneous brain oscillations; assay: TMS crossover study, resting state EEG
Description: Sensor-level delta (2-4 Hz), theta (4-7 Hz), alpha (8-12 Hz) and beta (13-30 Hz) frequency activity was estimated using a Fast Fourier Transform (FFT) approach. Power of all frequencies between 2 and 30 Hz were estimated, using a frequency resolution of 0.5 Hz. A non-parametric dependent samples t-test based on a permutation approach (1500 permutations) was used to test differences between drug conditions on all EEG sensors.

[4] = at highest Compound A plasma concentration vs pre-dose

## Cc1cc(N2CCc3cc(F)ccc3C2)cc(C)c1NC(=O)CC(C)(C)C [Compound A, N-[4-(6-fluoro-3,4-dihydro-1H-isoquinolin-2-yl)-2,6-dimethylphenyl]-3,3-dimethylbutanamide]
[1]; 20 mg single dose
  SICI (mean conditioned MEPs/mean unconditioned MEPs): no significant findings; also recorded: lack of an effect on SICI
[1]; 2 h post-dose
  Short Intracortical Inhibition (Mean Conditioned MEP/Mean Unconditioned MEP): 0.71 and 0.72 and 1.29 and 0.91 (2×) and 0.94 and 1.11 and 0.96 and 1.18 and 2.68 and 0.92 (2×) and 0.97 and 1.12 and 1.31 and 1.09 and 1.03 and 0.85 and 0.67
  Short Intracortical Inhibition (Mean Conditioned MEP/Mean Unconditioned MEP), Mean: 1.07
[1]; 4 h post-dose
  Short Intracortical Inhibition (Mean Conditioned MEP/Mean Unconditioned MEP): 1.03 (2×) and 0.93 and 0.54 and 1.20 and 1.68 and 1.64 and 0.86 and 0.61 and 1.01 and 1.53 and 1.04 and 1.17 and 0.89 and 1.27 and 0.87 and 0.75 and 1.07 and 1.02
  Short Intracortical Inhibition (Mean Conditioned MEP/Mean Unconditioned MEP), Mean: 1.06
[2]; 20 mg single dose
  AMT: increased
[2]; 20 mg, 6 h post-dose, p<0.01
  change from baseline in AMT vs placebo: significantly different from placebo
[2]; 2 h post-dose
  Active Motor Threshold, post-dose change from baseline: 2 % MSO (3×) and 4 % MSO and 0 % MSO (9×) and 3 % MSO and 1 % MSO (5×)
  Active Motor Threshold, post-dose change from baseline (Mean): 0.9 % MSO
[2]; 4 h post-dose
  Active Motor Threshold, post-dose change from baseline: 2 % MSO (4×) and 4 % MSO and 0 % MSO (9×) and 3 % MSO (4×) and 1 % MSO (2×)
  Active Motor Threshold, post-dose change from baseline (Mean): 1.3 % MSO
[2]; 6 h post-dose
  Active Motor Threshold, post-dose change from baseline: 0 % MSO (4×) and 6 % MSO and 1 % MSO (3×) and 2 % MSO (2×) and 3 % MSO (5×) and 4 % MSO
  Active Motor Threshold, post-dose change from baseline (Mean): 2.0 % MSO
[3]; 20 mg
  shift of power spectra of resting state EEGs: toward lower frequencies
[3]; 2 h after dosing vs pre-dose
  Modulation of resting state EEG bands, Delta: ↑ Delta
  Modulation of resting state EEG bands, Theta: ↑ Theta
[3]; 4 h after dosing vs pre-dose
  Modulation of resting state EEG bands, Beta: ↑ Beta
  Modulation of resting state EEG bands, Delta: ↑ Delta
  Modulation of resting state EEG bands, Theta: ↑ Theta
[3]; all available subjects, 2 h p<0.001, 4 h p<0.001
  resting state delta power vs pre-dose: significantly increased
[3]; all available subjects, 2 h p=0.005, 4 h p<0.001, 6 h p=0.009
  resting state beta band power vs pre-dose: significantly increased
[3]; all available subjects, 2 h p=0.006, 4 h two clusters p=0.008 and p=0.03
  resting state theta power vs pre-dose: significantly increased
[3]; [4]
  Modulation of resting state EEG bands, Beta: ↑ Beta
  Modulation of resting state EEG bands, Delta: ↑ Delta
  Modulation of resting state EEG bands, Theta: ↑ Theta
[3]; concentration analysis N=16, high plasma exposure, p<0.001
  resting state delta power vs pre-dose: increase in power
[3]; concentration analysis N=16, high plasma exposure, p=0.005
  resting state beta power vs pre-dose: increase in power
[3]; concentration analysis N=16, high plasma exposure, p=0.01
  resting state theta power vs pre-dose: increase in power
[3]; post-dose minus pre-dose, p<0.001
  resting state delta power compared to placebo: overall increase of power
[3]; post-dose minus pre-dose, p=0.003
  resting state beta power compared to placebo: overall increase of power
[3]; post-dose minus pre-dose, p=0.02
  resting state theta power compared to placebo: overall increase of power
[3]; subjects with drug exposure, 2 h p=0.001, 4 h p<0.001
  resting state delta power vs pre-dose: significantly increased
[3]; subjects with drug exposure, 2 h p=0.01, 4 h p<0.001
  resting state beta band power vs pre-dose: significantly increased
[3]; subjects with drug exposure, 2 h p=0.01, 4 h p=0.01
  resting state theta power vs pre-dose: significantly increased
